From ChEMBL document CHEMBL1152560, “Substituted 2-arylbenzothiazoles as kinase inhibitors: hit-to-lead optimization” (Bioorg Med Chem, 2009)

Assays:
[1] = target: Casein kinase I isoform alpha (Homo sapiens) (UniProt P48729); test: Residual activity of CK1alpha1 at 1 uM by microplate scintillation counting
[2] = target: Interferon-induced, double-stranded RNA-activated protein kinase (Homo sapiens) (UniProt P19525); test: Residual activity of EIF2AK2 at 1 uM by microplate scintillation counting
Chain of Interferon-induced, double-stranded RNA-activated protein kinase (Homo sapiens) (P19525 whole entry): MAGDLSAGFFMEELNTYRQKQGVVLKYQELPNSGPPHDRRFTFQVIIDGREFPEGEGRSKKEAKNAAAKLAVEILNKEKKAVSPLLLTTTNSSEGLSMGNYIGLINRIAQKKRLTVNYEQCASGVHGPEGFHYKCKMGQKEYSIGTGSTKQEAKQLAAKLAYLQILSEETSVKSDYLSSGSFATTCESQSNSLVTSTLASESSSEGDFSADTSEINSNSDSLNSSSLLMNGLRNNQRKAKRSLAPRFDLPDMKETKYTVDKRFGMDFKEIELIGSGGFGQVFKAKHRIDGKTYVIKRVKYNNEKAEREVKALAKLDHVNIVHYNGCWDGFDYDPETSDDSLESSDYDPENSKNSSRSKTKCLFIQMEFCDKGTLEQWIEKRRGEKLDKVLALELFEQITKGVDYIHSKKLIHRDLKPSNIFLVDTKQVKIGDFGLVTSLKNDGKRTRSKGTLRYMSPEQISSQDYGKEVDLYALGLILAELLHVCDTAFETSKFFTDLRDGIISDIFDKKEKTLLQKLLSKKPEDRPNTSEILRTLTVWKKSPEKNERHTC

[3] = target: Serine/threonine-protein kinase MARK2 (Homo sapiens) (UniProt Q7KZI7); test: Residual activity of MARK2 at 0.1 uM by microplate scintillation counting
Chain of Serine/threonine-protein kinase MARK2 (Homo sapiens) (Q7KZI7 whole entry): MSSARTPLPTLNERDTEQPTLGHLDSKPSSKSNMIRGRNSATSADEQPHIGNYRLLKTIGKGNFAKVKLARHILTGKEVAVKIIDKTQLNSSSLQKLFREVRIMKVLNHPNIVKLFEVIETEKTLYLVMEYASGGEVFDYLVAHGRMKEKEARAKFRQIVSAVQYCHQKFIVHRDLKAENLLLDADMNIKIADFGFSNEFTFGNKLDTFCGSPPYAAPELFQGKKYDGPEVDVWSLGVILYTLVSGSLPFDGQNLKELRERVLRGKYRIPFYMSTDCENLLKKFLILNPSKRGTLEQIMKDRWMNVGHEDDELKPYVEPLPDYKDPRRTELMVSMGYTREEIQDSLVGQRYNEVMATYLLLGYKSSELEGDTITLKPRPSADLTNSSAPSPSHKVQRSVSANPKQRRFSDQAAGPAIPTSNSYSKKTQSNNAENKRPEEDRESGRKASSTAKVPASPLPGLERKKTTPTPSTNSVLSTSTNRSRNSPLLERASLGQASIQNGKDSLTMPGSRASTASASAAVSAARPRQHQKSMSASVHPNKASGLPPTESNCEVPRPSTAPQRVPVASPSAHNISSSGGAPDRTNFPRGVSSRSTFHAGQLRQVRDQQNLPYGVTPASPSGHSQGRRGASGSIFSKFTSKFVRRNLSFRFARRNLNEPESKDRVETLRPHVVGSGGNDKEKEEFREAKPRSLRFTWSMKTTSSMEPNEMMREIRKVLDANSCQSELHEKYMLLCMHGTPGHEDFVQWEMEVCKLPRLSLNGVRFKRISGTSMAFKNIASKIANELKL

[4] = target: Interleukin-1 receptor-associated kinase 1 (Homo sapiens) (UniProt P51617); test: Residual activity of IRAKI at 1 uM by microplate scintillation counting
Chain of Interleukin-1 receptor-associated kinase 1 (Homo sapiens) (P51617 whole entry, looked up): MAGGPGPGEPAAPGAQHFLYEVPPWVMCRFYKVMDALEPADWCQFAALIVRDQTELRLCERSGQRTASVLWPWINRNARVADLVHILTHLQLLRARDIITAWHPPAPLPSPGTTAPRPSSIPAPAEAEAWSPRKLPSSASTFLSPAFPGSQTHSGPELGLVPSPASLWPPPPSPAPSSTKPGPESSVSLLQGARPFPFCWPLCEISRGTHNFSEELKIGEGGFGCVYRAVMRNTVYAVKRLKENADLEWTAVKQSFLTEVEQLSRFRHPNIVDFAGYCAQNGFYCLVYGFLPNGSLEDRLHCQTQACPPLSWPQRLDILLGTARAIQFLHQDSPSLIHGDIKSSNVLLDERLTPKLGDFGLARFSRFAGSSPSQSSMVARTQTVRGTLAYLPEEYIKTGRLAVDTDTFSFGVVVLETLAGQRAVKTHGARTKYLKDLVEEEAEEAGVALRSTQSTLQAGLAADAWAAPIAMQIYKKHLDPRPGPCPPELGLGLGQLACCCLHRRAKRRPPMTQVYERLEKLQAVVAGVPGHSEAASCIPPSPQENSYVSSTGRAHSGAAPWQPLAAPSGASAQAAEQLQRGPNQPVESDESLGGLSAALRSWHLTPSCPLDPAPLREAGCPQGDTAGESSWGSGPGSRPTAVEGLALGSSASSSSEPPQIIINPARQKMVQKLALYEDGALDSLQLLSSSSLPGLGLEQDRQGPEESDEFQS

[5] = target: Dual specificity mitogen-activated protein kinase kinase 1 (Homo sapiens) (UniProt Q02750); test: Residual activity of wild type MEK1 at 1 uM by microplate scintillation counting
Chain of Dual specificity mitogen-activated protein kinase kinase 1 (Homo sapiens) (Q02750 whole entry, the tested form may be a part): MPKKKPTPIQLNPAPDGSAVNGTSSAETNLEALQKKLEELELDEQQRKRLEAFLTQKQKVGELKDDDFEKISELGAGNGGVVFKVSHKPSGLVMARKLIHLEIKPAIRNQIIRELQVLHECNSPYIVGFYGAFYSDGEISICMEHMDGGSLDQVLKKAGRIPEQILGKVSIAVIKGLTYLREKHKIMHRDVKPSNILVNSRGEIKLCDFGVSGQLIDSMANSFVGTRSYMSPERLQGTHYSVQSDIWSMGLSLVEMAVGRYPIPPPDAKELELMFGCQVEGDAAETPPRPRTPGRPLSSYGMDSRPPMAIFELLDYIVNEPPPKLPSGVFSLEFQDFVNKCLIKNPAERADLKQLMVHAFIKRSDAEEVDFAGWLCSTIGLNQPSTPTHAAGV

[6] = target: T1, Discoidin domain-containing receptor 2 (Homo sapiens) (UniProt Q16832); test: Residual activity of DDR2 at 10 uM by microplate scintillation counting
T1 sequence (whole entry): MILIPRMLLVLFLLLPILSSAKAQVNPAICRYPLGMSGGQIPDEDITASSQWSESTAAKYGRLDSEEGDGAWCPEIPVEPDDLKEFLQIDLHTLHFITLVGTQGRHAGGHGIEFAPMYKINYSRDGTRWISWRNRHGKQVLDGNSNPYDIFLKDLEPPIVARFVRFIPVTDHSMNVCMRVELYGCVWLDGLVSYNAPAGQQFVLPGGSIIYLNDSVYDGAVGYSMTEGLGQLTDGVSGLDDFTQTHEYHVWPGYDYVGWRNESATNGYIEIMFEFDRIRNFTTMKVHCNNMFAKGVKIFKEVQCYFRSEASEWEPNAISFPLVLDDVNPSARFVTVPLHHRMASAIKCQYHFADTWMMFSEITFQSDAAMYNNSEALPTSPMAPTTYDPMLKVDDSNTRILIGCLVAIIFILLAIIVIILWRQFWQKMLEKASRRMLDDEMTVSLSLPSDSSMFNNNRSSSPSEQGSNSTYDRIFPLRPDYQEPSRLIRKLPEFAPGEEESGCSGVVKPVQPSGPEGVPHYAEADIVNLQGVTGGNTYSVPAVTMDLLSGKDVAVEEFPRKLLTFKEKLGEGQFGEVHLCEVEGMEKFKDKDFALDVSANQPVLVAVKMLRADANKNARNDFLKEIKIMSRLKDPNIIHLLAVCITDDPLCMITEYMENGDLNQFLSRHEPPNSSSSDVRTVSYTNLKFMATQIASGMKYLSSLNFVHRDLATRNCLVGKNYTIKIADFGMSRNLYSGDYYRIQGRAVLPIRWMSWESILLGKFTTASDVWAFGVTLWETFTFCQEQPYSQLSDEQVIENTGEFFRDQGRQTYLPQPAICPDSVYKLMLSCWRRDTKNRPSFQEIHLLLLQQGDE

[7] = target: T2, Tyrosine-protein kinase Mer (Homo sapiens) (UniProt Q12866); test: Residual activity of MERTK at 10 uM by microplate scintillation counting
T2 sequence (whole entry): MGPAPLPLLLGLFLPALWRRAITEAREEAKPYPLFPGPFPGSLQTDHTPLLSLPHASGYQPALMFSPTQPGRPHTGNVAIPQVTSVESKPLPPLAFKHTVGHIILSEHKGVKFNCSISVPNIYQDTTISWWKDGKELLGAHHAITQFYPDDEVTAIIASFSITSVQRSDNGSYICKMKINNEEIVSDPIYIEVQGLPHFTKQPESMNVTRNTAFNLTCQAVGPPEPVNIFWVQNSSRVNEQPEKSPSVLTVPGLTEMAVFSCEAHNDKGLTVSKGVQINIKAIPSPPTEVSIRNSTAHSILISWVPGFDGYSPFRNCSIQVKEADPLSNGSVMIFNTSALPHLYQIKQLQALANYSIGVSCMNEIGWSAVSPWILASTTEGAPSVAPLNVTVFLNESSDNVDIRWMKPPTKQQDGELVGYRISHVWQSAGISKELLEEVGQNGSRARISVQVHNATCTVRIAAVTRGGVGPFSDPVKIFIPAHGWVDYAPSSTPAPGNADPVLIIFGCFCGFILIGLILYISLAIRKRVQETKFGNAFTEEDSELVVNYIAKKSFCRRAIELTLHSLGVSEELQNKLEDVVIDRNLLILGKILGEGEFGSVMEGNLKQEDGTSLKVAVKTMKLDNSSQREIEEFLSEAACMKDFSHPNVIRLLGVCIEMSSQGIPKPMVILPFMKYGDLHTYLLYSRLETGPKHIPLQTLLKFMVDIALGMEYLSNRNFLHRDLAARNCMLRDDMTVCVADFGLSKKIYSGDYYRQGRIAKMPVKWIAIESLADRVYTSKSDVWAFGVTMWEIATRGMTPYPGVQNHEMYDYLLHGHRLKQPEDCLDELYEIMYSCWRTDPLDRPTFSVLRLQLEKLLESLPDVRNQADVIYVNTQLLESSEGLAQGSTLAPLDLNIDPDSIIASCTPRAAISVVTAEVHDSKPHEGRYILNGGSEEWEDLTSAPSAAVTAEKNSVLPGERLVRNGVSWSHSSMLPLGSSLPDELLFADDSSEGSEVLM

[8] = target: Myosin light chain kinase 2, skeletal/cardiac muscle (Homo sapiens) (UniProt Q9H1R3); test: Residual activity of MYLK2 at 10 uM by microplate scintillation counting
Chain of Myosin light chain kinase 2, skeletal/cardiac muscle (Homo sapiens) (Q9H1R3 whole entry): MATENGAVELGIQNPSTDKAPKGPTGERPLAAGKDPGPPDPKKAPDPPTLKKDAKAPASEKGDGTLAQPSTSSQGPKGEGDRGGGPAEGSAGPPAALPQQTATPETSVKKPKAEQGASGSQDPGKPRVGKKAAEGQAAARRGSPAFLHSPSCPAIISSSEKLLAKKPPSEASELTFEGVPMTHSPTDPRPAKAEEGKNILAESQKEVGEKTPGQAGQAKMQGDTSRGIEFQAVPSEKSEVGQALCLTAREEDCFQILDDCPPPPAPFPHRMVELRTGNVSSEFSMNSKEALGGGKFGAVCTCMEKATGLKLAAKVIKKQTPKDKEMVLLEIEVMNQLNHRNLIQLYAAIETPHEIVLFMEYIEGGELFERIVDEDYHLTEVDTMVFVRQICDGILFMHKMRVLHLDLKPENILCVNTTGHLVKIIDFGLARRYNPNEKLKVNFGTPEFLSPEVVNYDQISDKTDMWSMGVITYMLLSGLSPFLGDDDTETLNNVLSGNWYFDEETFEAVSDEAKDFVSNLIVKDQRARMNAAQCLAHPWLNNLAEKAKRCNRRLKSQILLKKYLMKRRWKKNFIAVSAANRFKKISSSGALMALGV

[9] = target: Serine/threonine-protein kinase pim-1 (Homo sapiens) (UniProt P11309); test: Residual activity of PIM1 at 10 uM by microplate scintillation counting
[10] = target: Protein kinase C theta type (Homo sapiens) (UniProt Q04759); test: Residual activity of PKCtheta at 10 uM by microplate scintillation counting
Chain of Protein kinase C theta type (Homo sapiens) (Q04759 whole entry, looked up): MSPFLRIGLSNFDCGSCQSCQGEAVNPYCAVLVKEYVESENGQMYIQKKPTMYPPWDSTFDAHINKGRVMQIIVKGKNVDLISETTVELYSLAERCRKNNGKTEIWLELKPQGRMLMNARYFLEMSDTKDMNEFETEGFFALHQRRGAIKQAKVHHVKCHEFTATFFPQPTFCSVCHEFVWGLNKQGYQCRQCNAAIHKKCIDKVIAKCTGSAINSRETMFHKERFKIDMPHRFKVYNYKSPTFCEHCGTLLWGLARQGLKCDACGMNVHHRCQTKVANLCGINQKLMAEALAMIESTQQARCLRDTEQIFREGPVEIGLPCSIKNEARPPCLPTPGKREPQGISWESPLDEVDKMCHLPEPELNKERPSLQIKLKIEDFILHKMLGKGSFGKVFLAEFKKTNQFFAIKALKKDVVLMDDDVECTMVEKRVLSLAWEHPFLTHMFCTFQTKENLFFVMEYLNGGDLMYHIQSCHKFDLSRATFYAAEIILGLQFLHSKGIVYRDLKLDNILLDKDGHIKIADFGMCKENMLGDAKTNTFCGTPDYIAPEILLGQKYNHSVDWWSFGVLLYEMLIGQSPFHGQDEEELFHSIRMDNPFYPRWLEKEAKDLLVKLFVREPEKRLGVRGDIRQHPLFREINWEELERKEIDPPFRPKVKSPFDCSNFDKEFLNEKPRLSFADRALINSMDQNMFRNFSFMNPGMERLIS

[11] = target: Cyclin-dependent kinase 1/cyclin B1 (Homo sapiens) (UniProt P06493+P14635); test: Residual activity of CDK1/CyclinB1 at 0.1 uM by microplate scintillation counting; format: protein-complex assay
Chain of Cyclin-dependent kinase 1/cyclin B1 (Homo sapiens) (P06493 whole entry, looked up): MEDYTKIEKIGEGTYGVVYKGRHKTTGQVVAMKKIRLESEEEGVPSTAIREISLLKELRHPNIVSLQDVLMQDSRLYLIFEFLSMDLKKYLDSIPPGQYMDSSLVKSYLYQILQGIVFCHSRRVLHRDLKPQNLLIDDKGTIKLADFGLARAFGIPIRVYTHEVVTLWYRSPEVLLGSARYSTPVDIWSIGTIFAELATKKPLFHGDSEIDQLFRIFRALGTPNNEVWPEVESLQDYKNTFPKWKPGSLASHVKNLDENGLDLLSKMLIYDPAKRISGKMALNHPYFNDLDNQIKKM
Chain of Cyclin-dependent kinase 1/cyclin B1 (Homo sapiens) (P14635 whole entry, looked up): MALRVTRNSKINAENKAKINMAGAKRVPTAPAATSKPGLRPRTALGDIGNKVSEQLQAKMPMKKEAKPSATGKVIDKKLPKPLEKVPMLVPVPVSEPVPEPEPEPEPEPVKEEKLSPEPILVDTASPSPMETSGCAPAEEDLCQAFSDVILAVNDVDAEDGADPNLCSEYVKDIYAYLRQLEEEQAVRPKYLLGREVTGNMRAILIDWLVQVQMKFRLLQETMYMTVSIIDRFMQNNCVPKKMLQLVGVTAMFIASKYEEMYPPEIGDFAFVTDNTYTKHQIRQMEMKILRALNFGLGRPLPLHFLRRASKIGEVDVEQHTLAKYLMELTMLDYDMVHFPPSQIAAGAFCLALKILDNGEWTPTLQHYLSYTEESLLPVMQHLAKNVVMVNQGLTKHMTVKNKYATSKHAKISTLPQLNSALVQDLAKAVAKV

[12] = target: T3, Serine/threonine-protein kinase Chk1 (Homo sapiens) (UniProt O14757); test: Residual activity of CHK1 at 0.1 uM by microplate scintillation counting
T3 sequence (whole entry): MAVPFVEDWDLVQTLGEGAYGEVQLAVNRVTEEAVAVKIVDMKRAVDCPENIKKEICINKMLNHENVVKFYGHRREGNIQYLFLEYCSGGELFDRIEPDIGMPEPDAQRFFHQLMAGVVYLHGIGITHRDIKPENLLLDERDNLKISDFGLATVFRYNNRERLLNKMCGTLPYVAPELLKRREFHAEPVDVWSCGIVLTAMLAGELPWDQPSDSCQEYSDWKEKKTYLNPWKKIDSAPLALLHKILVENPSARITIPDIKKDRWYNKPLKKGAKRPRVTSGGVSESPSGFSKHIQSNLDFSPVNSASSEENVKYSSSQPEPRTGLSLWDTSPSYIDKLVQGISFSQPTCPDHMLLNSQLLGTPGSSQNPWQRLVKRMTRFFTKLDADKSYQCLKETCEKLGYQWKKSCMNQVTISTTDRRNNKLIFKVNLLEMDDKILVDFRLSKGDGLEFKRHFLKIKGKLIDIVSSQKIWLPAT

Chain of Casein kinase I isoform alpha (Homo sapiens) (P48729 2-337 limits assumed): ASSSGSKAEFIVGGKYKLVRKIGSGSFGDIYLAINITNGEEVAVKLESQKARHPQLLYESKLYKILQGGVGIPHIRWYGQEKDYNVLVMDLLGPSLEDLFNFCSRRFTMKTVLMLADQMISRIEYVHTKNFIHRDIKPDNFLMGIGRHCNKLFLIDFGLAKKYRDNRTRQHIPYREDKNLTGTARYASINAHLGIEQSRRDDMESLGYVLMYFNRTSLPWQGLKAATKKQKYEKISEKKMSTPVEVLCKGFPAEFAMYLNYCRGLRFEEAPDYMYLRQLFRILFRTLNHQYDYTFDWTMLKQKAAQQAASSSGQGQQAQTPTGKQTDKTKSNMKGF

Row | Compound | residual activity [1] [%] | residual activity [2] [%] | residual activity [3] [%] | residual activity [4] [%] | residual activity [5] [%] | residual activity [6] [%] | residual activity [7] [%] | residual activity [8] [%] | residual activity [9] [%] | residual activity [10] [%] | residual activity [11] [%] | residual activity [12] [%]
1 | COc1cc2c(Oc3ccc(-c4nc5ccccc5s4)cc3)ncnc2cc1OCCCN1CCN(C)CC1 | 99 | 73 | 82 | 74 | 53 | 25 | 3 | 115 | 124 | 96 | 90 | 99
2 | COc1cc2c(Oc3ccc(-c4nc5ccccc5s4)cc3F)ncnc2cc1OCCCN1CCN(C)CC1 | 103 | 72 | 87 | 93 | 52 | 30 | 2 | 117 | 97 | 87 | 87 | 106
3 | COc1cc2c(Oc3ccc(-c4nc5ccccc5s4)cc3)ncnc2cc1OCCCN1CCCC1 | 102 | 83 | 90 | 58 | 59 | 42 | 1 | 82 | 74 | 64 | 84 | 94
